For the experiment, the target named is T1, cholesterol esterase (CE) (Homo sapiens, UniProt P19835).
T1 sequence (P19835 21-753): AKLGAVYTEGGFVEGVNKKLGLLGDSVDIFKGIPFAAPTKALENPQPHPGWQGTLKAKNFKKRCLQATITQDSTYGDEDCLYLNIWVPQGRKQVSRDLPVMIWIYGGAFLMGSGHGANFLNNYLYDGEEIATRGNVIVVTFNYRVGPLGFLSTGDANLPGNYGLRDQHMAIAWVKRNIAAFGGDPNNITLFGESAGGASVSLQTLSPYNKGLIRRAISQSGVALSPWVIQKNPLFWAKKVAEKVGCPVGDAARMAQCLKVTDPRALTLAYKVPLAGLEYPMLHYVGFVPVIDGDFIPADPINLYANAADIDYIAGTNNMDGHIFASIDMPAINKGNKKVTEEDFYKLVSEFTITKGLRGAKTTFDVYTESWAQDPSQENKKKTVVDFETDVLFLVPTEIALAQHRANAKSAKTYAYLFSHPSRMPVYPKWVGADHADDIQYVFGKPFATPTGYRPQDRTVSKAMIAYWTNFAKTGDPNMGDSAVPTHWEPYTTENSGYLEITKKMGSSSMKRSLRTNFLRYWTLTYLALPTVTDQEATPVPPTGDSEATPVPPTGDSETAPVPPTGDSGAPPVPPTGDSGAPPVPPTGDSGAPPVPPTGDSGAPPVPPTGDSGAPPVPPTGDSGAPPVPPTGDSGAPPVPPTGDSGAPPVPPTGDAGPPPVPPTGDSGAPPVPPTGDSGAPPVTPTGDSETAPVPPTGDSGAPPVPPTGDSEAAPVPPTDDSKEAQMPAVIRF
The experiment is described as follows: Kinetic inhibition studies of cholesterol esterase (CE), substrate p-nitrophenylbutyrate, Dixon plots. The experiment is classed as biochemical. The following applies: for inhibition of CE: kinetic inhibition studies, result in words.

Bounds are passed on as bounds.

For `O=c1oc(Cl)ccc1CC1CCCCC1` [Example 2], the “inhibition of CE” value is “potent inhibitors of CE”.

By Ki is commonly meant a dissociation constant, usually derived from enzyme kinetics or from competition with a known ligand. Regarding `O=c1oc(Cl)ccc1CCC1CCCCC1` [Example 3, 3-(2-cyclohexylethyl)-6-chloropyronle], the “inhibition of CE” value is on record as “potent inhibitors of CE”. Also, for the setting “1/V v [I] plots intersect above the x-axis, FIG. 6”, the “mode of inhibition of CE” value is reported as “competitive inhibition”. In addition, the Ki (printed as "<<30", inferred because calculated Ki equals [E]/2, read-out: actual Ki for CE (suggested)) is less than 30 nM.

Turning to `O=c1oc(Cl)ccc1CCCC1CCCCC1` [Example 4], the “inhibition of CE” value is “potent inhibitors of CE”.

The record behind these values is patent publication US5942631A, “Inhibitors of cholesterol esterase” (University Of New Mexico, priority 1998, dated 1999).
